# Measurements: US20110184034A1, “Severe sepsis preventive therapeutic agent” (priority 2002, published 2011)
# Experiments:
# [1] = system: TLR9 signal (CPG), mouse macrophage cell line RAW264.7; test: NO production by TLR9 selective agonist CpG oligoDNA (CPG) in RAW264.7; assay type: cell-based; details: RAW264.7, CpG oligoDNA 75 nmol/L + interferon-γ 0.1 ng/mL, nitrite ion
# Procedure: (§1) Using mouse macrophage cell line RAW264.7, the suppressive effect of the test substance on cytokine production by a TLR selective agonist was investigated. On the previous day of the experiment, the cells were suspended in RPMI-1640 medium supplemented with 10% inactivated fetal calf serum to 5×10^5 cells/mL and inoculated to a 96-well microplate at 0.2 mL/well. After incubation at 37° C. under an atmosphere of 5% CO2/95% air overnight, the medium was changed to an RPMI-1640 medium supplemented with 1% inactivated fetal calf serum, and a test substance, various TLR agonists and interferon-γ (final concentration 0.1 ng/mL) were added. After further incubation overnight, the concentration of nitrite ion (stable metabolite of NO) in the culture supernatant was quantified by fluorescence method using 2,3-dimaminonaphthalene. As the TLR4 selective agonist, LPS was added, as the TLR2 selective agonist, peptide glycan (PGN) was added, and as the TLR9 selective agonist, CpG oligoDNA (CPG) was added, to the final concentrations of 5 ng/mL, 1 μg/mL and 75 nmol/L, respectively. In addition, the test substance was dissolved at 10 mM in N,N-dimethylformamide, diluted with an RPMI-1640 medium supplemented with 1% inactivated fetal calf serum to the concentration of 0.1 mM, then diluted with a medium to a 10-fold concentration of the final concentration and 1/10 was added.
# [2] = system: LPS-inoculated female BALB/c mice; test: Effect by administration after LPS inoculation in endotoxin shock model (2), survival; assay type: in vivo, mouse; details: LPS 4 mg/kg i.p.; test substance 10 mg/kg i.v. (soybean oil emulsion) at 4 hr after LPS inoculation; observed 5 days
# Procedure: To investigate the treatment effect during the process toward an advanced degree after the onset of sepsis, the effect of a test substance (Reference Example B66) by administration after LPS inoculation in an endotoxin shock model was investigated. […] The test substance was prepared into an emulsified liquid of a soybean oil, and intravenously administered (10 mg/kg) immediately after, 1, 2, 4 and 6 hr after LPS inoculation. An emulsified liquid without a drug was intravenously administered to the control group immediately after LPS inoculation.
# [3] = system: TLR4 signal (LPS), mouse macrophage cell line RAW264.7; test: NO production by TLR4 selective agonist LPS in RAW264.7; assay type: cell-based; details: RAW264.7, LPS 5 ng/mL + interferon-γ 0.1 ng/mL, nitrite ion
# Procedure: as §1
# [4] = system: TLR2 signal (PGN), mouse macrophage cell line RAW264.7; test: NO production by TLR2 selective agonist peptide glycan (PGN) in RAW264.7; assay type: cell-based; details: RAW264.7, PGN 1 μg/mL + interferon-γ 0.1 ng/mL, nitrite ion
# Procedure: as §1
# [5] = system: TNF-α production, mouse macrophage cell line RAW264.7; test: TNF-α production by β-amyloid peptide (1-40) in RAW264.7; assay type: cell-based; details: β-amyloid peptide (1-40) 10 μM + interferon-γ 10 U/mL
# Procedure: (§2) On the previous day of the experiment, the cells were suspended in RPMI-1640 medium supplemented with 10% inactivated fetal calf serum to 5×10^5 cells/mL and inoculated to a 96-well microplate at 0.2 mL/well. After incubation at 37° C. under 5% CO2/95% air overnight, the medium was changed to an RPMI-1640 medium supplemented with 1% inactivated fetal calf serum, a test substance and β-amyloid peptide (1-40) (final concentration 10 μM) and interferon-γ (final concentration 10 U/mL) were added. After further incubation overnight, the concentrations of tumor necrosis factor-α (TNF-α) and IL-6 in culture supernatants were measured using an enzyme immunoassay kit manufactured by Amersham. The test substance was dissolved at 10 mM in N,N-dimethylformamide and diluted with an RPMI-1640 medium supplemented with 1%, inactivated fetal calf serum to the concentration of 0.1 mM, then diluted with a medium to a 10-fold concentration of the final concentration and 1/10 was added.
# [6] = system: IL-6 production, mouse macrophage cell line RAW264.7; test: IL-6 production by β-amyloid peptide (1-40) in RAW264.7; assay type: cell-based; details: β-amyloid peptide (1-40) 10 μM + interferon-γ 10 U/mL
# Procedure: as §2
# [7] = system: LPS-inoculated female BALB/c mice; test: Effect by administration after LPS inoculation in endotoxin shock model (1), survival; assay type: in vivo, mouse; details: LPS 10 mg/kg i.p.; test substance 30 mg/kg i.p. at 1 hr after LPS inoculation; observed one week
# Procedure: To investigate the treatment effect during the process toward an advanced degree after the onset of sepsis, the effect of a test substance (Reference Example B1) by administration after LPS inoculation in an endotoxin shock model was investigated. […] The test substance was suspended in 0.5% aqueous methyl cellulose solution, and intraperitoneally inoculated (30 mg/kg) at 1 hr before, immediately after, 30 min after and 1 hr after LPS inoculation. The solvent was given to the control group at 1 hr before LPS inoculation.
# [8] = system: E. coli O111 inoculated galactosamine-loaded female BALB/c mice; test: Galactosamine loaded mouse Escherichia coli inoculated lethal model, survival; assay type: in vivo; details: E. coli O111 5.9×10^5 CFU i.p. with galactosamine 1 g/kg; test substance 30 mg/kg orally at 1 hr after bacterial inoculation; observed 6 days
# Procedure: Since sepsis is a systemic inflammatory response caused by infection, the effect of a test substance (Reference Example B26) by administration after bacterial inoculation in infection model was studied. […] The test substance was suspended in 0.5% aqueous methyl cellulose solution, and orally administered (30 mg/kg) immediately, 30 min and 1, 2 and 4 hr after the bacterial inoculation. The solvent was orally administered to the control group immediately after the bacterial inoculation.
# In other words, the test substance can be expected to show effect of improving the state of severe sepsis complicated with organ dysfunction.
# [9] = system: female CBA/J mice, DSS induced colitis; test: Dextran sulfate induced colitis model; assay type: in vivo, mouse; details: for BW (%) / Hb / Ht (%) / RBC / WBC: means ± SE of six mice; for GBS (%) (grossly bloody stool): six mice
# Procedure: A 5% dextran sulfate (DSS) solution was placed in a water feeder to allow free drinking by female CBA/J mice (8 w) for 5 days, the solution was changed to 1% DSS solution on day 6 to allow free drinking for 7 days. The drug (Reference Example B3) (10-30 mg/kg) was suspended in 0.5% methyl cellulose (MC), and orally administered from day 6 under 1% DSS solution drinking once a day for 7 days. After 12 days of drinking DSS, the body weight was measured and stool was observed (grossly bloody stool: GBS). Blood was drawn and white blood count (WBC), red blood count (RBC), hemoglobin concentration (Hb) and hematocrit value (Ht) were measured by using an automatic cell counter (Sysmex).
# [10] = system: male Sprague-Dawley rats, balloon-injured carotid artery; test: Rat balloon injury model, vascular thickening (DNA content of carotid artery); assay type: in vivo; details: 30 and 100 mg/kg/d i.p. once a day, 2 weeks
# Procedure: Using male Sprague-Dawley rats, the neck was incised under sodium pentobarbital (45 mg/kg ip) anesthesia to expose left carotid artery. A Forgaty catheter (2F, manufactured by Baxtar) was inserted from the […] to a bifurcation area of internal and external carotid arteries of left carotid artery, a balloon was blown and abraded to the aortic arch bifurcation. This operation was repeated three times to injure the common carotid artery. After the injury, the catheter was extracted, the incision was sutured, and the rats were individually bred in ordinary breeding cages. After 2 weeks from the injury, the rats were exsanguinated under anesthesia, and the left (injured) side and the right (non-injured) side of carotid arteries were removed by 5 mm on the heart side, at 5 mm from the internal and external carotid artery bifurcation area, and the DNA content was measured. The drug (Reference Example B3) was suspended in 0.5% methyl cellulose, and intraperitoneally administered once a day from the day of balloon injury operation to carotid artery enucleation. When balloon injury operation was performed, the drug was administered 30 min before anesthesia and the balloon injury was produced.
# [11] = system: male DBA/1 mice, type II collagen induced arthritis; test: Collagen induced arthritis model; assay type: in vivo, mouse; details: for Arthritis incidence (%) / Arthritis index: 30 mg/kg orally once a day from collagen immunization
# Procedure: Bovine-derived type II collagen was dissolved in 0.050 acetic acid solution, and an equivalent amount of Freund's complete adjuvant was mixed therewith to give an emulsion. The collagen emulsion was administered intracutaneously into the tail head of male DBA/1 mice (6W) (n=10-12) at 100 μg/0.1 mL to induce arthritis. The levels of flare and edema of four limbs were visually observed during the progress thereof. The drug (Reference Example B3) (30 mg/kg) was suspended in 0.5% MC, and orally administered once a day from collagen immunization for 8 weeks (except Sundays). The onset of arthritis was evaluated every week, and the rate of onset was expressed by (number of limbs having arthritis/number of limbs of mice in one group×100). As indices of arthritis, for each limb, no change was 0, swelling of one finger or plural fingers was 1, flare and swelling seen in the entirety was 2, strong swelling seen in the entirety was 3, crampus tonicus of joint was 4, and the total of four limbs was 16, and arthritis was expressed in (total of all scores of onset mice/number of limbs of mice in one group), wherein 4 was the highest value for one limb.
# [12] = 10 mg/kg orally once a day for 7 days
# [13] = 30 mg/kg orally once a day for 7 days
smiles,measurement,setting,value
"CCOC(=O)C1=CCCC[C@H]1S(=O)(=O)Nc1ccc(F)cc1Cl [Reference Example B66, ethyl (6R)-6-[(2-chloro-4-fluoroanilino)sulfonyl]-1-cyclohexene-1-carboxylate]",IC50,[1],> 1 µM
same,life-saving effect (survival),[2],clear life-saving effect
same,IC50,[3],0.01 µM
same,IC50,[4],> 1 µM
"CCOC(=O)C1=CCCCC1S(=O)(=O)Nc1ccc(Cl)cc1F (stereo not drawn) [Reference Example B1, ethyl 6-[N-(4-chloro-2-fluorophenyl)-sulfamoyl]-1-cyclohexene-1-carboxylate]",Suppressive rate (%) TNF-α,[5]; 1 μM,77%
same,Suppressive rate (%) TNF-α,[5]; 10 μM,99%
same,Suppressive rate (%) IL-6,[6]; 1 μM,80%
same,Suppressive rate (%) IL-6,[6]; 10 μM,100%
same,life-saving effect (survival),[7],clear life-saving effect
"CCOC(=O)C1=CCCCC1S(=O)(=O)Cc1ccc(F)cc1Cl (stereo not drawn) [Reference Example D4, ethyl 6-[(2-chloro-4-fluorobenzyl)sulfonyl]-1-cyclohexene-1-carboxylate]",IC50,[1],> 1 µM
same,IC50,[3],0.011 µM
same,IC50,[4],> 1 µM
"CCOC(=O)C1=CCCCC1S(=O)(=O)Nc1ccc(F)cc1Cl (stereo not drawn) [Reference Example B26, ethyl 6-[N-(2-chloro-4-fluorophenyl)-sulfamoyl]-1-cyclohexene-1-carboxylate]",life-saving effect (survival),[8],clear life-saving effect
same,Suppressive rate (%) TNF-α,[5]; 1 μM,88%
same,Suppressive rate (%) TNF-α,[5]; 10 μM,100%
same,Suppressive rate (%) IL-6,[6]; 1 μM,93%
same,Suppressive rate (%) IL-6,[6]; 10 μM,96%
"CCOC(=O)C1=CCCCC1S(=O)(=O)Nc1ccc(F)cc1F (stereo not drawn) [Reference Example B3, ethyl 6-[N-(2,4-difluorophenyl)sulfamoyl]-1-cyclohexene-1-carboxylate]",BW (%),[9]; [12],102.0 ± 7.1%
same,Hb,[9]; [12],13.2 ± 0.8 g/dL
same,Ht (%),[9]; [12],35.4 ± 2.7%
same,RBC,[9]; [12],607.5 ± 45.3 ×10^4/μL
same,WBC,[9]; [12],41.0 ± 4.1^+ ×10^2/μL
same,GBS (%) (grossly bloody stool),[9]; [12],83%
same,BW (%),[9]; [13],102.8 ± 7.9%
same,Hb,[9]; [13],12.9 ± 0.5 g/dL
same,Ht (%),[9]; [13],35.1 ± 2.7%
same,RBC,[9]; [13],616.7 ± 51.1 ×10^4/μL
same,WBC,[9]; [13],53.5 ± 7.8^+ ×10^2/μL
same,GBS (%) (grossly bloody stool),[9]; [13],67%
same,"changes in WBC, RBC, Hb and Ht induced by DSS",[9]; 10-30 mg/kg orally,"remarkably suppressed changes in WBC, RBC, Hb and Ht induced by DSS"
same,Suppressive rate (%) TNF-α,[5]; 1 μM,87%
same,Suppressive rate (%) TNF-α,[5]; 10 μM,97%
same,vascular thickening due to balloon injury (DNA content),[10],suppressed vascular thickening due to balloon injury in a dose-dependent manner
same,Suppressive rate (%) IL-6,[6]; 1 μM,100%
same,Suppressive rate (%) IL-6,[6]; 10 μM,100%
same,incidence and index of arthritis,[11]; 30 mg/kg orally,decreased the incidence and index of arthritis
same,Arthritis incidence (%),[11]; 6W,37.5%
same,Arthritis index,[11]; 6W,0.65
same,Arthritis incidence (%),[11]; 7W,40.0%
same,Arthritis index,[11]; 7W,0.80
same,Arthritis incidence (%),[11]; 8W,60.0%
same,Arthritis index,[11]; 8W,1.15
"CCOC(=O)C1=CCOCC1S(=O)(=O)Nc1ccc(F)cc1Cl (stereo not drawn) [Reference Example D7, ethyl 3-[(2-chloro-4-fluorophenyl)sulfamoyl]-3,6-dihydro-2H-pyran-4-carboxylate]",IC50,[1],> 1 µM
same,IC50,[3],0.018 µM
same,IC50,[4],0.53 µM
